{"source": "patent US5371186A", "about": "“Synthetic peptides for detoxification of bacterial endotoxins and for the prevention and treatment of septic shock” (priority 1992, dated 1994)", "key": {"[1]": {"experiment": "prevention of endotoxin-induced death in CD1 mice sensitized with Actinomycin D", "type": "in vivo, mice (Strain CD1)", "details": "0.1 mg/mouse i.v., 1 μg endotoxin i.p.; for Mice surviving: 20 mice per group", "procedure": "Prevention of endotoxin-induced death in mice, has been achieved by intravenous injection of the peptides of the invention. For this experiment, a strain of mice highly sensitive to the lethal activity of bacterial endotoxin has been used. Mice sensitized with Actinomycin D (Strain CD1) show a high sensitivity to extremely low doses of endotoxin. A dose as low as 1 μg of endotoxin per mouse (about 40 μg/kg of body weight) is able to completely kill a population of mice within 24-48 hours.\nGroups of 20 mice CD1 have been treated intravenously with the peptides of the invention, with a single dose of 0.1 mg peptide, solubilized in sterile saline, per mouse. Thirty minutes later, mice were challenged by intraperitoneal injection of 1 μg of endotoxin purified from E. Coli strain 055-B5. Surviving mice were recorded every 24 hours during a seven days-period of observation. […] Negative controls received an intravenous injection of saline.\nThere were 20 mice per group. Mice surviving at each of the seven 24 hours observation periods are listed. The % survival appears in parenthesis. P expresses the level of statistical significance calculated by \"t-Test\" for each molecule compared to the treatment with saline, considering the total survival rate in each group."}, "[2]": {"experiment": "Limulus (LAL) test, inhibition of LPS-induced gelation", "type": "biochemical, B. Pertussis", "details": "LPS/Pept (w/w) 1; LPS 0.1 μg", "source_text": "As a consequence of this high-affinity binding to the Lipid A moiety of endotoxins, most of the synthetic peptide analogs have shown the ability to detoxify endotoxins as evidenced by in vitro as well as in vivo analysis. The in vitro test used, as measure of detoxification, the inhibition of the enzymatic cascade leading to the coagulation of the Lymulus lysate (LAL test) by endotoxin. The LAL test is recognized as the most sensitive and predictive test for the toxic and pyrogenic activity of LPS, since pyrogenicity in vivo is related to the release of the endogenous immune modulators Interleukin-1 (IL-l) and alfa-Tumor necrosis factor (α-TNF), the mediators responsible for the fatalities associated to septic shock. As an in vivo test confirming detoxification of LPS, was then used the Rabbit pyrogen test performed according to the United States Pharmacopeia XXI.\nThe results obtained by the Limulus (LAL) test, shown in Table V, support the data obtained by measuring the Affinity of the peptides of the invention for the Lipid A moiety of LPS in that they were substantially equivalent to Polymyxin \"B\" in the inhibition of LPS activity on Limulus. […] Peptide I was, in fact, the one presenting the non complete structure needed for the mimick of Polymyxin \"B\" as the synthetic peptide analogs II, IV, VI and VII have clearly shown in the previous Table IV. […]"}, "[3]": {"tested_on": "spleen cells from unimmunized healthy SJL/J mice", "experiment": "LPS-induced polyclonal B-cell activation, 3H-thymidine incorporation", "type": "cell-based", "details": "LPS 50 μg/ml, LPS alone 22,737, non stimulated 2,449 cpm", "procedure": "Cells were cultured in RPMI medium containing 1.0% normal mouse serum at 37° C. for 3 days. Cultures were pulsed with 1.0 μi/well of 3H-thymidine for 16 hours and harvested for counting on an LS betaplate counter. The results were as follows:\ncpm measured with non stimulated cultures = 2,449."}}, "data": [{"substance": "Polymyxin \"B\"", "values": [{"measurement": "% survival", "setting": "[1]; 24 hs", "result": 50, "unit": "%"}, {"measurement": "Mice surviving", "setting": "[1]; 24 hs", "result": 10}, {"measurement": "% survival", "setting": "[1]; 48 hs", "result": 40, "unit": "%"}, {"measurement": "Mice surviving", "setting": "[1]; 48 hs", "result": 8}, {"measurement": "% survival", "setting": "[1]; 72 hs", "result": 30, "unit": "%"}, {"measurement": "Mice surviving", "setting": "[1]; 72 hs", "result": 6}, {"measurement": "% survival", "setting": "[1]; 96 hs", "result": 30, "unit": "%"}, {"measurement": "Mice surviving", "setting": "[1]; 96 hs", "result": 6}, {"measurement": "% survival", "setting": "[1]; 120 hs", "result": 30, "unit": "%"}, {"measurement": "Mice surviving", "setting": "[1]; 120 hs", "result": 6}, {"measurement": "% survival", "setting": "[1]; 144 hs", "result": 30, "unit": "%"}, {"measurement": "Mice surviving", "setting": "[1]; 144 hs", "result": 6}, {"measurement": "% survival", "setting": "[1]; 168 hs", "result": 30, "unit": "%"}, {"measurement": "Mice surviving", "setting": "[1]; 168 hs", "result": 6}, {"measurement": "LAL TEST", "setting": "[2]", "result": "NEGATIVE"}, {"measurement": "3H-thymidine incorporation", "setting": "[3]; 12.5 μg/ml", "result": "2,366 cpm"}, {"measurement": "3H-thymidine incorporation", "setting": "[3]; 25 μg/ml", "result": "3,559 cpm"}, {"measurement": "3H-thymidine incorporation", "setting": "[3]; 50 μg/ml", "result": "2,831 cpm"}, {"measurement": "3H-thymidine incorporation", "setting": "[3]; 100 μg/ml", "result": "4,128 cpm"}]}]}
